The values that follow come from patent US7063829B2, “Wasp family protein fragments, and use thereof” (Centre National de la Recherche Scientifique, priority 1999, dated 2006).

The test system of data set [1] is actin polymerisation. The data set can be described thus: Cellular actin polymerisation test with GST-WH2/A beads in cell extracts. In kind it is biochemical, human. The text has this: The GST-WH2/A protein was absorbed onto 500 nm latex beads (Polyscience Inc., 400 Valley Road, Warrington Pa., USA) following the manufacturers' instructions.
Moreover, the components recruited onto the surface of the beads, are targets for tyrosine kinase signalling pathways. Thanks to this in vitro system, it is now possible to study the conditions necessary for actin polymerisation in cells, a process which up to now has not been accessible to direct experimental manipulation.
The cellular actin polymerisation test of the invention has all these characteristics. Beads measuring 200–500 nm can be produced by absorbing purified GST-WH2/A recombinant protein on their surface. […] The beads are then added to extracts prepared from supernatants of lysed cells in culture. The volume of extract necessary for an experiment is of the order of a few microlitres, reducing the cost of the experiment. These extracts have the advantage that they can be produced in a large quantity and stored for a long period, at −80° C. Before the addition of these beads, a fluorescent actin derivative (commercial actin-rhodamine) is added to the extract to make the actin polymerisation visible by epifluorescence microscopy. The actin polymerisation is observed 15 min after the addition of the beads, resulting in an accumulation of fluorescent actin around the beads. […]

Data set [2] relates to actin cytoskeleton. The conditions noted are these: after some years of use; cited from earlier work.
The subject of data set [3] is actin polymerisation on the surface of GST-WA particles. The data set can be described thus: Inhibition of actin polymerisation induced by GST-WA protein on particles in HeLa extracts. In kind it is biochemical, human. The procedure:
Inhibition of actin polymerisation induced by GST-WA protein: 10 μm polystyrene particles (Polysciences inc.) are covered to saturation with GST-WA protein according to the manufacturer's protocol. The particles are resuspended to 1% solid in PBS (Phosphate Buffer Saline) and stored on ice. To test the independence of the actin polymerisation mechanism induced by GST-WA we prepared three solutions. Each sample contained 15 μl of HeLa extracts (supplemented with ATP, creatine phosphate and actin marked with rhodamine), 0.5 μl of GST-WA particles and 1.5 μl of PBS (A), or 1.5 μl of GST-WA protein at 1 mg/ml (B) or 1.5 μl of GST-PRO protein (PRO corresponding to the fragment delimited by the amino acids situated at positions 235 to 584 of the ActA protein of Listeria monocytogenes) at 1 mg/ml (C). 6 μl of the final mixture of these three solutions were sealed between slide and coverglass. We observed fluorescence (rhodamine actin) around the particles for thirty minutes and measured the intensity of fluorescence on a population of forty beads using a microscope (Leica) and a linear digital camera (Micromax Princeton instrument). The average intensity M (arbitrary unit) was 95,000±13,000 for sample A (positive control). For sample B, M=0±1000, the actin polymerisation on the surface of the particles was inhibited by the addition of GST-WA in solution. […]

Take `C=C1[C@@H](C)[C@H]2[C@H](Cc3ccccc3)NC(=O)[C@]23[C@H](OC(C)=O)/C=C/[C@@](C)(O)C(=O)[C@@H](C)C/C=C/[C@H]3[C@@H]1O` [cytochalasin D]: the “sensitivity of the screening test to known medicaments inhibiting actin polymerisation” value in data set [1] is “sensitive”.

For the molecule `CCCC(CCC)C(=O)O` [valproic acid], the “teratogenic properties due to secondary effects on the actin cytoskeleton” value in data set [2] is given as “teratogenic properties”.

Take latrunculin: the “sensitivity of the screening test to known medicaments inhibiting actin polymerisation” value in data set [1] is listed as “sensitive”.

B1: GST-WA: recombinant fusion of GST, WH2/A domain of human WASP (positions 404-502, SEQ ID NO: 4) and myc9E10 epitope (protein)
chain: PSSGNGPAPPPLPPALVPAGGLAPGGGRGALLDQIRQGIQLNKTPGAPESSALQPPPQSSEGLVGALMHVMQKRSRAIHSSDEGEDQAGDEDEDDEWDDEQKLISEEDL
modifications: left off: a dimerising Fc or GST
Take B1: the “average intensity M of fluorescence (rhodamine actin) around the particles” value in data set [3] (1.5 μl protein at 1 mg/ml added to 15 μl HeLa extracts + 0.5 μl GST-WA particles (10 μm polystyrene), thirty minutes, forty beads, PBS control (sample A) 95,000±13,000) is reported as 0±1000 arbitrary unit. Moreover, in data set [3] (protein at 1 mg/ml in solution, HeLa extracts, GST-WA particles), the “actin polymerisation on the surface of the particles after addition of the protein in solution” value is listed as “inhibited”.
